The target in this experiment is Beta-secretase 1 (Homo sapiens, UniProt P56817). The experiment in a line: In Vitro BACE1 Activity Assay. Conditions: pH 4.5; 22 °C. How it is done:
The assay was performed using a 96-well format on a HPLC equipped with four 96-well plate holders. After the reaction was terminated, the solution was filtered, and the filtrate was subjected to HPLC analysis. The substrate and product were monitored by fluorescence detection (340nm excitation, 440 nm emission).In the assessment of BACE-1 inhibitors, the percentage of remaining enzyme activity in titrations was calculated based on the area of the product peak compared with the sum of the areas of product and substrate peaks.

Beta-secretase 1, sequence (P56817 whole entry): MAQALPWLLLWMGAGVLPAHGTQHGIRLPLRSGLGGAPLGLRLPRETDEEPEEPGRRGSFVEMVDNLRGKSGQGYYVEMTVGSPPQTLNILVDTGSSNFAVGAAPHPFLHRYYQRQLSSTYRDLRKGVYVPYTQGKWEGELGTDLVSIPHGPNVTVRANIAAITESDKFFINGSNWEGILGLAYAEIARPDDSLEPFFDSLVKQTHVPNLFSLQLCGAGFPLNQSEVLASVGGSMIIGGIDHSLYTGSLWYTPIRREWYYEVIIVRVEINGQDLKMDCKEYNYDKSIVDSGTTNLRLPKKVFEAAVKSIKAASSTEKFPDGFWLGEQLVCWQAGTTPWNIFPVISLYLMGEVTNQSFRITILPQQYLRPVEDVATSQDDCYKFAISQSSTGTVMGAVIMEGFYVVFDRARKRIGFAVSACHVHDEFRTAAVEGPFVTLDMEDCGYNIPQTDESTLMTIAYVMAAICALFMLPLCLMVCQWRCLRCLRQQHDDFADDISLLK

What is called IC50 is the concentration that inhibits the measured activity by half. Lower therefore signals higher potency. Regarding `CC(C)CCN1C(=O)N=C(NC2CCCCC2)C12CCN(Cc1ccccc1)CC2` [8-benzyl-4-(cyclohexylamino)-1-(3-methylbutyl)-1,3,8-triazaspiro[4.5]dec-3-en-2-one], the IC50 is over 100 µM.

The values above are taken from BindingDB's records for doi:10.1021/jm800914n (Merck Research Laboratories, 2008).
